# According to patent US20140288074A1, “FUNGICIDAL PYRAZOLES” (E I DU PONT DE NEMOURS AND COMPANY, priority 2013, published 2014):
# Experiments:
# Assay type in all cases: in vivo
# Botrytis cinerea = experiment: Test A: preventive spray on tomato seedlings, tomato Botrytis, visual disease rating; settings: 200 ppm test suspension, Botrytis cinerea inoculated the day after spraying; for pest or weed control at 200 ppm: 120 h
# Procedure: General protocol for preparing test suspensions for Tests A-G: the test compounds were first dissolved in acetone in an amount equal to 3% of the final volume and then suspended at the desired concentration (in ppm) in acetone and purified water (50/50 mix by volume) containing 250 ppm of the surfactant Trem® 014 (polyhydric alcohol esters). The resulting test suspensions were then used in Tests A-G. Each test was conducted in triplicate, and the results were averaged. Spraying a 200 ppm test suspension to the point of run-off on the test plants was the equivalent of a rate of 800 g/ha. Unless otherwise indicated, the rating values indicate a 200 ppm test suspension was used. (An asterisk “*” next to the rating value indicates a 40 ppm test suspension was used.) The test suspension was sprayed to the point of run-off on tomato seedlings. The following day the seedlings were inoculated with a spore suspension of Botrytis cinerea (the causal agent of tomato Botrytis) and incubated in saturated atmosphere at 20° C. for 48 h, and then moved to a growth chamber at 24° C. for 3 additional days, after which time visual disease ratings were made. Results for Tests A-G are given in Table A. In the Table, a rating of 100 indicates 100% disease control and a rating of 0 indicates no disease control (relative to the controls). A hyphen (-) indicates no test results.
# Septoria nodorum = experiment: Test C: preventive spray on wheat seedlings, Septoria glume blotch, visual disease rating; settings: 200 ppm test suspension, Septoria nodorum inoculated the day after spraying; for pest or weed control at 200 ppm: Parastagonospora nodorum, 264 h
# Procedure: General protocol for preparing test suspensions for Tests A-G: the test compounds were first dissolved in acetone in an amount equal to 3% of the final volume and then suspended at the desired concentration (in ppm) in acetone and purified water (50/50 mix by volume) containing 250 ppm of the surfactant Trem® 014 (polyhydric alcohol esters). The resulting test suspensions were then used in Tests A-G. Each test was conducted in triplicate, and the results were averaged. Spraying a 200 ppm test suspension to the point of run-off on the test plants was the equivalent of a rate of 800 g/ha. Unless otherwise indicated, the rating values indicate a 200 ppm test suspension was used. (An asterisk “*” next to the rating value indicates a 40 ppm test suspension was used.) The test suspension was sprayed to the point of run-off on wheat seedlings. The following day the seedlings were inoculated with a spore suspension of Septoria nodorum (the causal agent of Septoria glume blotch) and incubated in a saturated atmosphere at 24° C. for 48 h, and then moved to a growth chamber at 20° C. for 9 days, after which time visual disease ratings were made. Results for Tests A-G are given in Table A. In the Table, a rating of 100 indicates 100% disease control and a rating of 0 indicates no disease control (relative to the controls). A hyphen (-) indicates no test results.
# Septoria tritici = experiment: Test D: preventive spray on wheat seedlings, wheat leaf blotch, visual disease rating; settings: 200 ppm test suspension, Septoria tritici inoculated the day after spraying; for pest or weed control at 200 ppm: Zymoseptoria tritici, 504 h
# Procedure: General protocol for preparing test suspensions for Tests A-G: the test compounds were first dissolved in acetone in an amount equal to 3% of the final volume and then suspended at the desired concentration (in ppm) in acetone and purified water (50/50 mix by volume) containing 250 ppm of the surfactant Trem® 014 (polyhydric alcohol esters). The resulting test suspensions were then used in Tests A-G. Each test was conducted in triplicate, and the results were averaged. Spraying a 200 ppm test suspension to the point of run-off on the test plants was the equivalent of a rate of 800 g/ha. Unless otherwise indicated, the rating values indicate a 200 ppm test suspension was used. (An asterisk “*” next to the rating value indicates a 40 ppm test suspension was used.) The test suspension was sprayed to the point of run-off on wheat seedlings. The following day the seedlings were inoculated with a spore suspension of Septoria tritici (the causal agent of wheat leaf blotch) and incubated in saturated atmosphere at 24° C. for 48 h. and then the seedlings were moved to a growth chamber at 20° C. for 19 additional days, after which time visual disease ratings were made. Results for Tests A-G are given in Table A. In the Table, a rating of 100 indicates 100% disease control and a rating of 0 indicates no disease control (relative to the controls). A hyphen (-) indicates no test results.
# [1] = test system: Puccinia recondita f. sp. tritici; experiment: Test F: preventive spray on wheat seedlings, wheat leaf rust, visual disease rating; settings: 200 ppm test suspension, Puccinia recondita f. sp. tritici inoculated the day after spraying; for pest or weed control at 200 ppm: 168 h
# Procedure: General protocol for preparing test suspensions for Tests A-G: the test compounds were first dissolved in acetone in an amount equal to 3% of the final volume and then suspended at the desired concentration (in ppm) in acetone and purified water (50/50 mix by volume) containing 250 ppm of the surfactant Trem® 014 (polyhydric alcohol esters). The resulting test suspensions were then used in Tests A-G. Each test was conducted in triplicate, and the results were averaged. Spraying a 200 ppm test suspension to the point of run-off on the test plants was the equivalent of a rate of 800 g/ha. Unless otherwise indicated, the rating values indicate a 200 ppm test suspension was used. (An asterisk “*” next to the rating value indicates a 40 ppm test suspension was used.) The test suspension was sprayed to the point of run-off on wheat seedlings. The following day the seedlings were inoculated with a spore suspension of Puccinia recondita f. sp. tritici (the causal agent of wheat leaf rust) and incubated in a saturated atmosphere at 20° C. for 24 h, and then moved to a growth chamber at 20° C. for 6 days, after which time visual disease ratings were made. Results for Tests A-G are given in Table A. In the Table, a rating of 100 indicates 100% disease control and a rating of 0 indicates no disease control (relative to the controls). A hyphen (-) indicates no test results.
# [2] = test system: Blumeria graminis f. sp. tritici; experiment: Test G: preventive spray on wheat seedlings, wheat powdery mildew, visual disease rating;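 for all read-outs here: rated 8 days after spore dust inoculation at 20 °C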; settings: 200 ppm test suspension, Blumeria graminis f. sp. tritici inoculated the day after spraying; for pest or weed control at 200 ppm: 192 h
# Procedure: General protocol for preparing test suspensions for Tests A-G: the test compounds were first dissolved in acetone in an amount equal to 3% of the final volume and then suspended at the desired concentration (in ppm) in acetone and purified water (50/50 mix by volume) containing 250 ppm of the surfactant Trem® 014 (polyhydric alcohol esters). The resulting test suspensions were then used in Tests A-G. Each test was conducted in triplicate, and the results were averaged. Spraying a 200 ppm test suspension to the point of run-off on the test plants was the equivalent of a rate of 800 g/ha. Unless otherwise indicated, the rating values indicate a 200 ppm test suspension was used. (An asterisk “*” next to the rating value indicates a 40 ppm test suspension was used.) The test suspension was sprayed to the point of run-off on wheat seedlings. The following day the seedlings were inoculated with a spore dust of Blumeria graminis f. sp. tritici (also known as Erysiphe graminis f. sp. tritici, the causal agent of wheat powdery mildew) and incubated in a growth chamber at 20° C. for 8 days, after which time visual disease ratings were made. Results for Tests A-G are given in Table A. In the Table, a rating of 100 indicates 100% disease control and a rating of 0 indicates no disease control (relative to the controls). A hyphen (-) indicates no test results.
Molecule,pest or weed control at 200 ppm (Botrytis cinerea) [%],pest or weed control at 200 ppm (Septoria nodorum) [%],pest or weed control at 200 ppm (Septoria tritici) [%],pest or weed control at 200 ppm [1] [%],pest or weed control at 200 ppm [2] [%],Test A rating (disease control) (Botrytis cinerea) [%],Test C rating (disease control) (Septoria nodorum) [%],Test D rating (disease control) (Septoria tritici) [%],Test F rating (disease control) [1] [%],Test G rating (disease control) [2] [%]
"Cc1nn(C)c(N2CCOCC2)c1-c1ccc(F)cc1Cl [Compound 40, 4-[4-(2-chloro-4-fluorophenyl)-1,3-dimethyl-1H-pyrazol-5-yl]morpholine]",100,0,100,99,94,–,–,–,–,–
Cc1nn(C)c(OCC(C)C)c1-c1ccc(F)cc1Cl [Compound 29],–,–,–,–,–,0,100,63,99,0
CCCCN(CCCC)c1c(-c2ccc(F)cc2Br)c(C)nn1C [Compound 37],–,–,–,–,–,0,99,0,99,0
Cc1nn(C)c(OC(C)C)c1-c1ccc(F)cc1Cl [Compound 31],–,–,–,–,–,0,0,0,22,0
"4-(2-chloro-6-fluorophenyl)-N,1,3-trimethyl-α-(1-methylpropyl)-1H-pyrazole-5-methanamine [Compound 34]",–,–,–,–,–,0,99,12,90,0
Cc1nn(C)c(NCC(C)C)c1-c1ccc(F)cc1Br [Compound 44],–,–,–,–,–,0,59,0,90,0
"Cc1nn(C)c(OCC2CC2)c1-c1ccc(F)cc1Cl [Compound 27, 4-(2-chloro-4-fluorophenyl)-5-(cyclopropylmethoxy)-1,3-dimethyl-1H-pyrazole]",99,69,100,9,0,–,–,–,–,–
"Cc1nn(C)c(C(O)C(C)C)c1-c1c(F)cccc1Cl (stereo not drawn) [Compound 24, 4-(2-chloro-6-fluorophenyl)-1,3-dimethyl-α-(1-methylethyl)-1H-pyrazole-5-methanol]",99,98,91,99,97,–,–,–,–,–
CCN(CC)c1c(-c2c(F)cc(F)cc2F)c(C)nn1C [Compound 50],–,–,–,–,–,38,0,0,74,0
CCN(CC)c1c(-c2ccc(F)cc2Br)c(C)nn1C [Compound 39],–,–,–,–,–,0,64,0,68,0
Cc1nn(C)c(NCC2CC2)c1-c1ccc(F)cc1Br [Compound 48],–,–,–,–,–,98,68,71,89,0
COCCN(CCOC)c1c(-c2c(F)cc(F)cc2F)c(C)nn1C [Compound 51],–,–,–,–,–,82,100,–,99,55
Cc1nn(C)c(NCC(C)C)c1-c1c(F)cc(F)cc1F [Compound 53],–,–,–,–,–,95,100,–,100,81
"CCC(C)C(SC)c1c(-c2c(F)cccc2Cl)c(C)nn1C (stereo not shown) [Compound 35, 4-(2-chloro-6-fluorophenyl)-1,3-dimethyl-5-[2-methyl-1-(methylthio)butyl]-1H-pyrazole]",0,0,–,0,69,–,–,–,–,–
